The data set in a line: Metabolic stability test (microsomal metabolism test). The data set is classed as in vitro ADME. The settings on record: pH 7.4; human-derived liver microsomes, test compound remaining after addition of NADP+ and incubation at 37°C for 30 minutes; read-out: metabolic stability of T/C%. In short, it runs like this:
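Test compound was added as a 3 µM solution to human liver microsomes (0.3–1.5 mgP/mL) in pH 7.4 phosphate buffer with G6P, G6P dehydrogenase and MgCl2. This was preincubated 20 min at 37°C, then 3 mM NADP+ solution was added and incubated 30 min at 37°C. T/C (%) is compound remaining after versus before NADP+ addition.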
On the technique in general: Microsomes from liver hold many membrane-bound enzymes, among them those of drug oxidation.
As to `CC(C)C1=C(C(=O)N2[C@@H](C)CC[C@H]2C(=O)N2CC3(CC3)NC[C@@H]2C)SC2=N[C@@](C)(c3ccc(Cl)nc3)[C@@H](c3ccc(Cl)c(F)c3)N21` [Example 65, (6S)-7-[(5S)-1-{[(5R,6S)-5-(4-chloro-3-fluorophenyl)-6-(6-chloropyridin-3-yl)-3-isopropyl-6-methyl-5,6-dihydroimidazo[2,1-b][1,3]thiazol-2-yl]carbonyl}-5-methyl-L-prolyl]-6-methyl-4,7-diazaspiro[2.5]octane], the remaining at 0.5 h is not below 50%.

`CC(C)C1=C(C(=O)N2C[C@@](C)(O)C[C@H]2C(=O)N2CC3(CC3)NC[C@@H]2C)SC2=N[C@@](C)(c3ccc(Cl)nc3)[C@@H](c3ccc(Cl)c(F)c3)N21` [Example 68, (3S,5S)-1-{[(5R,6S)-5-(4-chloro-3-fluorophenyl)-6-(6-chloropyridin-3-yl)-3-isopropyl-6-methyl-5,6-dihydroimidazo[2,1-b][1,3]thiazol-2-yl]carbonyl}-3-methyl-5-{[(6S)-6-methyl-4,7-diazaspiro[2.5]oct-7-yl]carbonyl}pyrrolidin-3-ol]: the remaining at 0.5 h is not below 50%. Consider `CC(C)C1=C(C(=O)N2C[C@@H]3C[C@@H]3[C@H]2C(=O)N2CC3(CC3)NC[C@@H]2C)SC2=N[C@@](C)(c3ccc(Cl)nc3)[C@@H](c3ccc(Cl)c(F)c3)N21` [Example 69, (65)-7-{[(1S,25,5R)-3-{[(5R,65)-5-(4-chloro-3-fluorophenyl)-6-(6-chloropyridin-3-yl)-3-isopropyl-6-methyl-5,6-dihydroimidazo[2,1-b][1,3]thiazol-2-yl]carbonyl}-3-azabicyclo[3.1.0]hex-2-yl]carbonyl}-6-methyl-4,7-diazaspiro[2.5]octane], for which the remaining at 0.5 h was not below 50%. On to `CC(C)C1=C(C(=O)N2[C@@H]3C[C@@H]3C[C@H]2C(=O)N2CC3(CC3)NC[C@@H]2C)SC2=N[C@@](C)(c3ccc(Cl)nc3)[C@@H](c3ccc(Cl)c(F)c3)N21` [Example 70, (6S)-7-{[(1R,3S,5R)-2-{[(5R,6S)-5-(4-chloro-3-fluorophenyl)-6-(6-chloropyridin-3-yl)-3-isopropyl-6-methyl-5,6-dihydroimidazo[2,1-b][1,3]thiazol-2-yl]carbonyl}-2-azabicyclo[3.1.0]hex-3-yl]carbonyl}-6-methyl-4,7-diazaspiro[2.5]octane], for which the remaining at 0.5 h is not below 50%. Consider `CC(C)C1=C(C(=O)N2[C@H](C)CC[C@H]2C(=O)N2CCNC3(CC3)C2)SC2=N[C@@](C)(c3ccc(Cl)nc3)[C@@H](c3ccc(Cl)c(O)c3)N21` [Example 71, 2-chloro-5-[(5R,6S)-6-(6-chloropyridin-3-yl)-2-{[(2S,5R)-2-(4,7-diazaspiro[2.5]oct-7-ylcarbonyl)-5-methylpyrrolidin-1-yl]carbonyl}-3-isopropyl-6-methyl-5,6-dihydroimidazo[2,1-b][1,3]thiazol-5-yl]phenol], for which the remaining at 0.5 h is not below 50%. With `COc1ccc([C@]2(C)N=C3SC(C(=O)N4[C@H](C)CC[C@H]4C(=O)N4CCNC5(CC5)C4)=C(C(C)C)N3[C@@H]2c2ccc(Cl)c(F)c2)cc1` [Example 72, 7-[(5R)-1-{[(5R,6S)-5-(4-chloro-3-fluorophenyl)-3-isopropyl-6-(4-methoxyphenyl)-6-methyl-5,6-dihydroimidazo[2,1-b][1,3]thiazol-2-yl]carbonyl}-5-methyl-L-prolyl]-4,7-diazaspiro[2.5]octane], the remaining at 0.5 h is not below 50%.

In the case of `CCOc1ccc([C@]2(C)N=C3SC(C(=O)N4[C@H](C)CC[C@H]4C(=O)N4CCNC5(CC5)C4)=C(C(C)C)N3[C@@H]2c2ccc(Cl)c(F)c2)cn1` [Example 73, 7-[(5R)-1-{[(5R,6S)-5-(4-chloro-3-fluorophenyl)-6-(6-ethoxypyridin-3-yl)-3-isopropyl-6-methyl-5,6-dihydroimidazo [2,1-b] [1,3]-thiazol-2-yl]-carbonyl}-5-methyl-L-prolyl]-4,7-diazaspiro[2.5]octane], the remaining at 0.5 h was not below 50%. `CC(C)C1=C(C(=O)N2[C@H](C)CC[C@H]2C(=O)N2CCNC3(CC3)C2)SC2=N[C@@](C)(c3ccc(Cl)nc3)[C@@H](c3ccc(C(F)(F)F)c(F)c3)N21` [Example 74, 7-[(5R)-1-({(5R,6S)-6-(6-chloropyridin-3-yl)-5-[3-fluoro-4-(trifluoromethyl)phenyl]-3-isopropyl-6-methyl-5,6-dihydroimidazo[2,1-b][1,3]thiazol-2-yl}carbonyl)-5-methyl-L-prolyl]-4,7-diazaspiro[2.5]octane]: the remaining at 0.5 h was not below 50%.

Values taken from EP2298778A1, “IMIDAZOTHIAZOLE DERIVATIVE HAVING 4,7-DIAZASPIROÝ2.5¨OCTANE RING STRUCTURE” (Daiichi Sankyo Company, Limited, priority 2008, dated 2009).
